Assay results from ChEMBL document CHEMBL1157299, “Alkaloids from Eschscholzia californica and their capacity to inhibit binding of [3H]8-Hydroxy-2-(di-N-propylamino)tetralin to 5-HT1A receptors in Vitro” (J Nat Prod, 2006).
Activity calls are given as the source filed them. No cut-off for these calls is given here. Where a SMILES comes first, the peptide text is derived from it. [ ]: non-standard residue; d: D form.

How the values were obtained:
[1] = target: T1, 5-hydroxytryptamine receptor 1A (Homo sapiens) (UniProt P08908); test: (§1) Displacement of [3H]8-OH-DPAT from human recombinant 5HT1A receptor expressed in CHO cells; format: cell-based
T1 sequence (whole entry): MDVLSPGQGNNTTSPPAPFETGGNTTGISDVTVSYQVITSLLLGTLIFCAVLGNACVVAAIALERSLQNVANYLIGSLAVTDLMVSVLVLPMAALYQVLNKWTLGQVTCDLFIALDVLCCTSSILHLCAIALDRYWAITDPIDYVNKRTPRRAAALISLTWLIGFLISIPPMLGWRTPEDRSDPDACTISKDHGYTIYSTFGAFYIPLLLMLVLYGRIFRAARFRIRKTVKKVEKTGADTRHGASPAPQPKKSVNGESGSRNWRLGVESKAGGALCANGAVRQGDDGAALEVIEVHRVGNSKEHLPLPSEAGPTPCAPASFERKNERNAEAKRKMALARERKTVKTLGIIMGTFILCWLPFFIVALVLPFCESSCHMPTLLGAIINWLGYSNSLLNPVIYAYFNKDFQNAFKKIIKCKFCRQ

[2] = target: T2, 5-hydroxytryptamine receptor 1A (Homo sapiens, UniProt P08908); test: as §1; format: cell-based
T2 sequence (P08908 whole entry): T1 sequence (whole entry)

[3] = target: Cytochrome P450 3A4 (Homo sapiens, UniProt P08684)
[4] = target: Substance-P receptor (Homo sapiens, UniProt P25103); test: Displacement of [3H]SR140333 from human recombinant NK1 receptor expressed in CHO cells; format: cell-based
[5] = target: T3, Substance-K receptor (Homo sapiens, UniProt P21452); test: Displacement of [3H]SR48968 from human recombinant NK2 receptor expressed in CHO cells; format: cell-based
T3 sequence (P21452 whole entry): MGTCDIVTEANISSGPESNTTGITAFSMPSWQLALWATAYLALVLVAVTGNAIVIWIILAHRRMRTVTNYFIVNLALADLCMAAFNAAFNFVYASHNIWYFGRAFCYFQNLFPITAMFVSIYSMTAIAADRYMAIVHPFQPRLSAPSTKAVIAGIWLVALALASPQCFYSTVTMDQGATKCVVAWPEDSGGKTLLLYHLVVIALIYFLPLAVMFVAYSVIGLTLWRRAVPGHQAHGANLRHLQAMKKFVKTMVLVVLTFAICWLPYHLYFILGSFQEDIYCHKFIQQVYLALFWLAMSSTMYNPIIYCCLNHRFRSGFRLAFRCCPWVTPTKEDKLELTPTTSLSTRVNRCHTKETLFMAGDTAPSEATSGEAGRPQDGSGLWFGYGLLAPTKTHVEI

Chain of Cytochrome P450 3A4 (P08684 whole entry): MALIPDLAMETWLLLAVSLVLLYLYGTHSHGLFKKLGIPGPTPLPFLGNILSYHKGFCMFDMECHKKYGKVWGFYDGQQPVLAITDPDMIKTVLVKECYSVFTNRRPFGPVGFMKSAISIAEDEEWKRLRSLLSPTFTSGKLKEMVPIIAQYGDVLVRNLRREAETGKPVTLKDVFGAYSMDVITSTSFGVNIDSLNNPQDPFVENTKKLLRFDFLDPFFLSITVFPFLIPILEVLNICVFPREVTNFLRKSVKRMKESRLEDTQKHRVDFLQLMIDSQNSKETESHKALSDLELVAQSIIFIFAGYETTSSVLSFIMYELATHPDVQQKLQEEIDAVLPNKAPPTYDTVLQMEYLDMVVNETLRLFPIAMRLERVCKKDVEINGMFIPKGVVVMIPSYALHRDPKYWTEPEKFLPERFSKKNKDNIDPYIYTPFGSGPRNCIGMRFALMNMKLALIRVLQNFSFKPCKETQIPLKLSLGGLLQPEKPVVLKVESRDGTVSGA
Chain of Substance-P receptor (P25103 whole entry): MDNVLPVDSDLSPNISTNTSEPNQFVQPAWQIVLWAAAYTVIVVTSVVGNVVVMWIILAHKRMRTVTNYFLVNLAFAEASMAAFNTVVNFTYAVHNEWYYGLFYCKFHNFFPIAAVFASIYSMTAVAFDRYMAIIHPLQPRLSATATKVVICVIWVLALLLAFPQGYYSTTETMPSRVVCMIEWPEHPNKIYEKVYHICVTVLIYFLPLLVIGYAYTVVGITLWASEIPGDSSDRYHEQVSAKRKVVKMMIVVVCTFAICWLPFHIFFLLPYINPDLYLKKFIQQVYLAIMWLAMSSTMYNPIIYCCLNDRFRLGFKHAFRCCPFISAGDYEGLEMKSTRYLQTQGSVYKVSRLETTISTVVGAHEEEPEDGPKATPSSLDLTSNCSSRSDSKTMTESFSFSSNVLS

Compound | Activity [1] | EC50 [2] | IC50 [3] | further results
COc1cc2c(cc1O)[C@@H]1Cc3cc4c(cc3[C@H](C2)N1C)OCO4 [CARYACHINE] | 5 µM | 9 µM | – | –
O=c1c(O)c(-c2ccc(O)c(O)c2)oc2cc(O)cc(O)c12 [QUERCETIN] | inactive | > 100 µM | – | –
CN1[C@H]2Cc3cc4c(cc3[C@@H]1Cc1cc3c(cc12)OCO3)OCO4 [ESCHOLTZINE] | – | 11 µM | – | Ki [2]: 6 µM
COc1cc2c(cc1O)C[C@H]1c3c(cc(OC)c(OC)c3-2)CCN1C | – | 0.16 µM | – | Ki [2]: 0.085 µM
COc1cc(-c2oc3cc(O)cc(O)c3c(=O)c2O[C@@H]2O[C@H](CO[C@@H]3O[C@@H](C)[C@H](O)[C@@H](O)[C@H]3O)[C@@H](O)[C@H](O)[C@H]2O)ccc1O [NARCISSIN] | – | – | > 80 µM | –
C[N+]1(C)[C@H]2Cc3cc4c(cc3[C@@H]1Cc1cc3c(cc12)COC3)OCO4 [CALIFORNIDINE] | inactive | > 100 µM | > 80 µM | –
CN1CCc2cc3c(cc2C(=O)Cc2ccc4c(c2C1)OCO4)OCO3 [PROTOPINE] | – | > 100 µM | > 80 µM | –
Ic1ccccc1CN[C@@H]1C2CCN(CC2)[C@@H]1C(c1ccccc1)c1ccccc1 (relative stereo) | – | – | – | EC50 [4]: 0.0244 µM
CC(C)[C@H](NC(=O)[C@@H](Cc1c[nH]c2ccccc12)NC(=O)[C@H](Cc1ccc(O)cc1)NC(=O)[C@@H](N)CC(=O)O)C(=O)N[C@H](Cc1c[nH]c2ccccc12)C(=O)N[C@H](Cc1c[nH]c2ccccc12)C(=O)N[C@@H](CCCCN)C(N)=O (H-DY[dW]V[dW][dW]K-NH2) | – | – | – | EC50 [5]: 0.0781 µM
